According to patent EP0804445B1, “METALLOCENIC […] DERIVATIVES, METHODS FOR THEIR PREPARATION AND PHARMACEUTICAL COMPOSITIONS CONTAINING SAME” (Modelisation et Mise au Point de Molecules Medicanales - …, priority 1994, dated 1996):

Key:
lignée MCF-7 ATCC HTB = test: MTT cytotoxicity test (cell viability); type: cell-based, humaines; conditions: MCF7 ATCC cells; 5 days incubation with compound; MTT readout at 550 nm; calculated from points of Figures 1A, 1B and 2 between 5.10^-7 and 10^-5 moles/l; read-out: IC50 (µmole) MCF7 ATCC
Excerpt: (§1) L'évaluation de la cytotoxicité des isomères "trans" et "cis" du 1-[4-(2-diméthylaminoéthoxy) phényl]-1-(4-hydroxyphényl)-2-ferrocényl-1-butène a fait l'objet de tests sur des lignées de cellules humaines dérivées d'une effusion pleurale d'un adénocarcinome mammaire (lignée MCF-7 ATCC HTB) ainsi que de l'un de ses variants (lignée MCF-7P).
(§2) Ces cellules ont été préalablement cultivées dans du milieu Dulbecco MEM additionné de 10% de sérum de veau foetal et en atmosphère humide (90% d'humidité relative) comprenant 5% de CO2. En phase exponentielle de croissance, ces cellules ont été trypsinées et repiquées dans des plaques de 24 puits de 1 ml à raison de 2.10^5 cellules par puits.
(§3) Après 3 jours d'incubation, les composés à tester ont été ajoutés aux doses appropriées et les plaques ont été mises à incuber pendant 5 jours.
(§4) A l'issue de cette incubation, la viabilité cellulaire des cultures a été déterminée à l'aide du test dit "MTT" consistant à ajouter dans chaque puits 20 µl d'une solution contenant 5 mg de bromure de (diméthyl-4,5-thiazol-2-yl)diphényl-2,5-tétrazolium (MTT) dans 1 ml de tampon PBS, et à laisser incuber les plaques pendant 1 heure à 37°C dans des conditions atmosphériques identiques à celles définies ci-dessus. Le MTT est métabolisé dans les cellules vivantes en un composé bleu insoluble (formazan).
(§5) A l'issue de cette incubation, les puits sont lavés à l'aide de PBS pour éliminer le MTT et les cristaux résiduels de formazan sont repris dans 1 ml de DMSO. La concentration en formazan pour chaque puits est lue par photométrie à une longueur d'onde de 550 nm et comparée à un témoin correspondant à du milieu incubé en présence de MTT mais en l'absence de cellules.

lignée MCF-7P = test: MTT cytotoxicity test (cell viability); type: cell-based, humaines; conditions: MCF7-P variant cells; 5 days incubation with compound; MTT readout at 550 nm; calculated from points of Figures 1A, 1B and 2 between 5.10^-7 and 10^-5 moles/l; read-out: IC50 (µmole) MCF7-P
Excerpt: as §1, §2, §3, §4, §5

SMILES: CCC(=C(c1ccc(O)cc1)c1ccc(OCCN(C)C)cc1)[c-]1cccc1.[Fe+2].c1cc[cH-]c1 [Dérivé "cis", 1-[4-(2-diméthylaminoéthoxy)phényl]-1-(4-hydroxyphényl)-2-ferrocényl-1-butène]
- IC50 (lignée MCF-7 ATCC HTB): 3.4 µM
- IC50 (lignée MCF-7P): 5.6 µM

SMILES: CCC(=C(c1ccc(O)cc1)c1ccc(OCCN(C)C)cc1)[c-]1cccc1.[Fe+2].c1cc[cH-]c1 [Dérivé "trans", 1-[4-(2-diméthylaminoéthoxy)phényl]-1-(4-hydroxyphényl)-2-ferrocényl-1-butène]
- IC50 (lignée MCF-7 ATCC HTB): 4.9 µM
- IC50 (lignée MCF-7P): 2 µM
